Tests used:
[1] = target: rat histamine H4 receptor (Rattus norvegicus, UniProt Q91ZY1); assay: biochemical
[2] = target: T1, human histamine H4 receptor (Homo sapiens, UniProt Q9H3N8); assay: biochemical
[3] = system: Zymosan Induced Peritonitis in Mice; conditions: for effect on PMN influx: H4 ANTAG #1 10 mg/kg, Imetit 5 mg/kg, thioperamide 5 mg/kg, 4 h after zymosan; for PMN (10^6 per mouse) Mean: group mean, s.c. at -15 min and +2 h (H4 ANTAG #1 10 mg/kg; Imetit, Thioperamide 5 mg/kg), lavage 4 h after zymosan
[4] = target: guinea pig histamine H4 receptor (Cavia porcellus, UniProt Q91ZY3); assay: biochemical
[5] = system: Croton Oil Induced Topical Inflammation in Mice; conditions: 6 h after croton oil
[6] = target: T1, human histamine H4 receptor; conditions: histamine 100 pM-100 uM; forskolin 3 uM; SK-N-MC cells
[7] = target: T1, human histamine H4 receptor; conditions: SK-N-MC or COS7 cells expressing human histamine H4 receptor

guinea pig histamine H4 receptor, sequence (Q91ZY3 1-389): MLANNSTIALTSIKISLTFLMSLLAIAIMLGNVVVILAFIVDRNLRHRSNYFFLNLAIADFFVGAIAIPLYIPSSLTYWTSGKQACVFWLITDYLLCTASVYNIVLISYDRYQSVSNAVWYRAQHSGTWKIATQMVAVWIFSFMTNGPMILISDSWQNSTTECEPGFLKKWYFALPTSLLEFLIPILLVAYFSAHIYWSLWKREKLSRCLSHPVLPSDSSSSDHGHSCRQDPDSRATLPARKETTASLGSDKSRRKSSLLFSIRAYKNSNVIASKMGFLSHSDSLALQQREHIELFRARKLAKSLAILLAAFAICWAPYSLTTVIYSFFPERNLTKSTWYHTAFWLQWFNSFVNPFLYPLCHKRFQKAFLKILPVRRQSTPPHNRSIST
rat histamine H4 receptor, sequence (Q91ZY1 whole entry): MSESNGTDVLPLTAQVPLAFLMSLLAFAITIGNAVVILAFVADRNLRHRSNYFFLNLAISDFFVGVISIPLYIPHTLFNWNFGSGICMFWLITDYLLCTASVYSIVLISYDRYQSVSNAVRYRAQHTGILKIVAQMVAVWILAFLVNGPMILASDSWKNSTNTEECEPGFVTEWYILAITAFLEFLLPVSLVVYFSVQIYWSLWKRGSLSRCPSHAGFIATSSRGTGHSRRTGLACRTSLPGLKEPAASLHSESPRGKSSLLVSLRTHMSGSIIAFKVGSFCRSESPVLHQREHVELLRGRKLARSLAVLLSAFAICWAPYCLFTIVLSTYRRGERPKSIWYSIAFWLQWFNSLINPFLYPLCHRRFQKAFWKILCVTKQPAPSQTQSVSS
T1 sequence (Q9H3N8 whole entry): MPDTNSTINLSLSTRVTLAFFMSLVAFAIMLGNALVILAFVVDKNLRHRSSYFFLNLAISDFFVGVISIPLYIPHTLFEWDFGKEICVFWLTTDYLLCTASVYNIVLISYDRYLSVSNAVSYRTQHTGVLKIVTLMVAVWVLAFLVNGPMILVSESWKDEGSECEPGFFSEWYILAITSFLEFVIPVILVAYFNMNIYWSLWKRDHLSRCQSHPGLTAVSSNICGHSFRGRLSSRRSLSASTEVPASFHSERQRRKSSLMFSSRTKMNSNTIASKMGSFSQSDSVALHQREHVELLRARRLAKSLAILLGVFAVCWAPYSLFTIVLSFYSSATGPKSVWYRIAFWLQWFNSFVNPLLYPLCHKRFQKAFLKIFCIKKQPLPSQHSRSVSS

Row | Molecule | Ki [1] [nM] | Ki [2] [nM] | Ki [4] [nM] | further results
1 | N=C(N)SCCc1cnc[nH]1 [Imetit] | 6.8 | 1.3 | 30 | effect on PMN influx [3]: inactive; PMN (10^6 per mouse) Mean [3]: 17.3 10^6 per mouse
2 | S=C(NC1CCCCC1)N1CCC(c2cnc[nH]2)CC1 [Thioperamide] | – | – | 83 | effect on PMN influx [3]: significant inhibitory effect; PMN (10^6 per mouse) Mean [3]: 9.3 10^6 per mouse; % inhib (PMN) ([3]; vs PBS + zymosan, 4 h, doses as in Table 1, s.c.): (−46%)
3 | CNCCc1c[nH]cn1 [N-methylhistamine] | 552 | 48 | 220 | –
4 | COc1ccc2c(c1)c(CC(=O)O)c(C)n2C(=O)c1ccc(Cl)cc1 [Indomethacin] | – | – | – | Difference in ear thickness (×0.01 mm) Mean ([5]; group mean, s.c. ×3 (H4 ANTAG #1 10 mg/kg; Indomethacin 30 mg/kg)): 10.0 ×0.01 mm; % inhib (ear swelling) ([5]; vs vehicle, s.c. ×3): (−40%)
5 | NCCc1c[nH]cn1 [Histamine] | – | – | 27 | activation of recombinant human histamine H4 receptor (decrease of forskolin-raised cAMP), words [6]: specifically activated
6 | NC(=NCc1ccc(Cl)cc1)SCCCc1cnc[nH]1 [Clobenpropit] | 63 | 4.9 | 3.6 | –
7 | ^3H-histamine | – | – | – | ^3H-histamine binding [7]: high affinity
